Measurements from patent US11311542B2, “Inhibitors of cyclin dependent kinase 7 (CDK7)” (Syros Pharmaceuticals, Inc., priority 2018, dated 2022).
Read-outs that look alike come from different tables or passages of the source.

Tests used:
COV318 cells = experiment: Inhibition of cell proliferation (CyQUANT Direct), COV318; type: cell-based, human; conditions: COV318, 72-hour
Description: (§1) HCC70 and MB453 cells are cell lines derived from human triple negative breast cancer COV318 and COV504 cells are cell lines derived from human ovarian cancer. Representative compounds of the invention were tested at different concentrations (from 4 μM to 126.4 pM; 0.5 log serial dilutions) for their ability to inhibit the proliferation of each of these cell lines. Known CDK inhibitors dinaciclib or N-((1S,3R)-3-((5-chloro-4-(1H-indol-3-yl) pyrimidin-2-yl)amino)cyclohexyl)-5-((E)-4-(dimethylamino)but-2-enamido)picolinamide and triptolide were used as positive controls. Cells were seeded at approximately 2,000 cells/well and grown in ATCC-formulated RPMI-1640 Medium (ATCC 30-2001)+10% FBS. The cells were cultured at 37° C. in a humidified chamber in the presence of 5% CO2. Proliferation assays were conducted over a 72-hour time period. CyQUANT® Direct Cell Proliferation Assay (Life Technologies, Chicago, Ill. USA) was used to assess the anti-proliferative effects of the compounds following manufacturer's directions and utilizing the reagents supplied with the CyQUANT® Direct Cell kit.

COV504 cells = experiment: Inhibition of cell proliferation (CyQUANT Direct), COV504; type: cell-based, human; conditions: COV504, 72-hour
Description: as §1

[1] = biological target: CDK7/Cyclin H/MAT1 complex (Homo sapiens, UniProt P50613); experiment: CDK7 kinase inhibition assay (Caliper/LabChip EZ Reader)
Sequence of CDK7/Cyclin H/MAT1 complex (P50613 whole entry): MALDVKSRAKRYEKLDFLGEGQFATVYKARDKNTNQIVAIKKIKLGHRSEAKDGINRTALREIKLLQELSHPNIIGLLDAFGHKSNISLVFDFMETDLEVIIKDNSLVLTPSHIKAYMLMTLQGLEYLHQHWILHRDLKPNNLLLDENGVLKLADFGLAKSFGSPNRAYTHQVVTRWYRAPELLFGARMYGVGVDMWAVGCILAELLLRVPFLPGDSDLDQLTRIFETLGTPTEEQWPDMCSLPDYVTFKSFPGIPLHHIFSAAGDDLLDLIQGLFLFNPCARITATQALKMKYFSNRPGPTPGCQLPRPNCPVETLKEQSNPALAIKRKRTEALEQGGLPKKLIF
Sequence of CDK7/Cyclin H/MAT1 complex (P51946 whole entry partner): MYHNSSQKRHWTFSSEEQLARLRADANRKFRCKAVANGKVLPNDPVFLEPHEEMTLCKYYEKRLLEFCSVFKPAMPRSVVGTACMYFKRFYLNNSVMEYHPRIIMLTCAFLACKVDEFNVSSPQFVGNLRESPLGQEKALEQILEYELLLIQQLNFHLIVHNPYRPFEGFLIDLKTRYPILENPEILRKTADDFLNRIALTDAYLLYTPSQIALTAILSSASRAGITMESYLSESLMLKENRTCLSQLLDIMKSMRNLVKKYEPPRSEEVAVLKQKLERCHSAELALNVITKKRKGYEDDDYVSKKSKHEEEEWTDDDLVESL
Sequence of CDK7/Cyclin H/MAT1 complex (P51948 whole entry partner): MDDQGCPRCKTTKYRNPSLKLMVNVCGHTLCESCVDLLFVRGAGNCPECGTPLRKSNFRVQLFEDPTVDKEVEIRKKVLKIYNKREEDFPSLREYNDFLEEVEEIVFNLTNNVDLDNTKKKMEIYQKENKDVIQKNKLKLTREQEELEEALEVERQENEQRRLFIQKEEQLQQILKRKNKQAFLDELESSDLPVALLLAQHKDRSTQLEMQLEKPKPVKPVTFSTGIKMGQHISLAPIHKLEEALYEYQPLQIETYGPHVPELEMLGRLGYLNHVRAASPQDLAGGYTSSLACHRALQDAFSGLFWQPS
Description: (§2) Compounds described herein were assayed for inhibition of CDK7, CDK9, CDK12, and CDK2 activity at Biortus Biosciences (Jiangyin, Jiangsu Province, P.R. of China) using kinase assays for each CDK developed with a Caliper/LabChip EZ Reader (Perkin Elmer, Waltham, Mass.).
(§3) Furthermore, the CDK9 inhibition assay used CDK9/Cyclin T1 complex (8 nM) and “5-FAM-CDK9tide” peptide substrate (2 μM, synthesized fluorophore-labeled peptide with the following sequence: 5-FAM-GSRTPMY-NH2 (SEQ ID NO:2) where 5-FAM is defined above and NH2 signifies a C-terminal amide) with 10 mM MgCl2 in the buffer composition listed above. The CDK12 inhibition assay used CDK12 (aa686-1082)/Cyclin K complex (50 nM) and “5-FAM-CDK9tide” (2 μM) as defined above, with 2 mM MgCl2 in the buffer composition above. Additionally, the CDK2 inhibition assay used CDK2/Cyclin E1 complex (0.5 nM) and “5-FAM-CDK7tide” (2 μM; defined above) with 2 mM MgCl2 in the buffer composition above.
(§4) The incubation period at 27° C. for each CDK inhibition assay was chosen such that the fraction of phosphorylated peptide product produced in each assay, relative to the total peptide concentration, was approximately 20% (±5%) for the uninhibited kinase (35 min. for CDK7, 35 min. for CDK2, 3 hr. for CDK12, 15 min. for CDK9).

HCC70 cells = experiment: Inhibition of cell proliferation (CyQUANT Direct), HCC70; type: cell-based, human; conditions: HCC70, 72-hour
Description: as §1

MB453 cells = experiment: Inhibition of cell proliferation (CyQUANT Direct), MB453; type: cell-based, human; conditions: MB453, 72-hour
Description: as §1

CDK9/Cyclin T1 complex = CDK9/Cyclin T1 complex (Homo sapiens, UniProt P50750); experiment: CDK9 kinase inhibition assay (Caliper/LabChip EZ Reader)
Sequence of CDK9/Cyclin T1 complex (P50750 whole entry): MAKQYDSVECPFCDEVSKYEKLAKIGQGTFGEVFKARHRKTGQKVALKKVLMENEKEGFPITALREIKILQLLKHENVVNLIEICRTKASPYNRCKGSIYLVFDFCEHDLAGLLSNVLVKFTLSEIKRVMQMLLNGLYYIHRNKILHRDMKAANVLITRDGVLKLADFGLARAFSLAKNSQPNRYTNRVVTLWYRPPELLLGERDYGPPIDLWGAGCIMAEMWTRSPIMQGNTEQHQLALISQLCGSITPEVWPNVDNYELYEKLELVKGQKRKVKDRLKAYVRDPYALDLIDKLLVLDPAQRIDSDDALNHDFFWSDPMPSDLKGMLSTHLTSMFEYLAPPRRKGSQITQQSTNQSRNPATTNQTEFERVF
Sequence of CDK9/Cyclin T1 complex (O60563 whole entry partner): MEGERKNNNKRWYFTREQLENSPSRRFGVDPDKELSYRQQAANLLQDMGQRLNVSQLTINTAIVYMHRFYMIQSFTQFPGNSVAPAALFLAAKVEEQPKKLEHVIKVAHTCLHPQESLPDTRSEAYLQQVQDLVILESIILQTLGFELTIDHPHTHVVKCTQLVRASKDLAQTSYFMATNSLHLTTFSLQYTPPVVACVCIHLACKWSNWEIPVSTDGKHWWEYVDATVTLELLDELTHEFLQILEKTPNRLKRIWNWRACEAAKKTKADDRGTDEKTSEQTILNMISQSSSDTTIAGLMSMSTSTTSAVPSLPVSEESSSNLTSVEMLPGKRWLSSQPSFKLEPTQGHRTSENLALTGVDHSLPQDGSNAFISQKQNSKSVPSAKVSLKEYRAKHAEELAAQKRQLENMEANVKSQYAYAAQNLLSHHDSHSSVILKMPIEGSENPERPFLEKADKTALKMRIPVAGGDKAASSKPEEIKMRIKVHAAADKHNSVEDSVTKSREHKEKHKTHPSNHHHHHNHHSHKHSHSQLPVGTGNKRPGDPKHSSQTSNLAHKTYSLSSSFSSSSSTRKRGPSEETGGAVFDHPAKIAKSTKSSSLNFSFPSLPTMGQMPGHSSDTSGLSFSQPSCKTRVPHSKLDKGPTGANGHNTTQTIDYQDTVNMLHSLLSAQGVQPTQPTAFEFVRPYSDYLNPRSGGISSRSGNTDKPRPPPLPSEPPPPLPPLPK
Description: as §2, §3, §4

CDK2/Cyclin E1 complex = CDK2/Cyclin E1 complex (Homo sapiens, UniProt P24941); experiment: CDK2 kinase inhibition assay (Caliper/LabChip EZ Reader)
Description: as §2, §3, §4

[2] = biological target: CDK12 (aa686-1082)/Cyclin K complex (Homo sapiens, UniProt Q9NYV4); experiment: CDK12 kinase inhibition assay (Caliper/LabChip EZ Reader)
Sequence of CDK12 (aa686-1082)/Cyclin K complex (Q9NYV4 686-1082): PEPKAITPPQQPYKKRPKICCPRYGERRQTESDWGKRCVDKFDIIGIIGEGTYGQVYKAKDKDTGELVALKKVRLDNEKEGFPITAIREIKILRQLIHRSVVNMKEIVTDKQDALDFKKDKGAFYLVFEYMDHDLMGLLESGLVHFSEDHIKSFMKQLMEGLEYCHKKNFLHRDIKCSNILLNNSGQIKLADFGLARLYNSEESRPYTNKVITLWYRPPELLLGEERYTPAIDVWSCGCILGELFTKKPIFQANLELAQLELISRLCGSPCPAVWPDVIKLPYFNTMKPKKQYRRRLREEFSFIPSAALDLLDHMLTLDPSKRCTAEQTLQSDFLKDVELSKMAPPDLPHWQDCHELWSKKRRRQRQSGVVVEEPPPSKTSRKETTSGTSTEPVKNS
Sequence of CDK12 (aa686-1082)/Cyclin K complex (O75909 whole entry partner, the tested form may be a part): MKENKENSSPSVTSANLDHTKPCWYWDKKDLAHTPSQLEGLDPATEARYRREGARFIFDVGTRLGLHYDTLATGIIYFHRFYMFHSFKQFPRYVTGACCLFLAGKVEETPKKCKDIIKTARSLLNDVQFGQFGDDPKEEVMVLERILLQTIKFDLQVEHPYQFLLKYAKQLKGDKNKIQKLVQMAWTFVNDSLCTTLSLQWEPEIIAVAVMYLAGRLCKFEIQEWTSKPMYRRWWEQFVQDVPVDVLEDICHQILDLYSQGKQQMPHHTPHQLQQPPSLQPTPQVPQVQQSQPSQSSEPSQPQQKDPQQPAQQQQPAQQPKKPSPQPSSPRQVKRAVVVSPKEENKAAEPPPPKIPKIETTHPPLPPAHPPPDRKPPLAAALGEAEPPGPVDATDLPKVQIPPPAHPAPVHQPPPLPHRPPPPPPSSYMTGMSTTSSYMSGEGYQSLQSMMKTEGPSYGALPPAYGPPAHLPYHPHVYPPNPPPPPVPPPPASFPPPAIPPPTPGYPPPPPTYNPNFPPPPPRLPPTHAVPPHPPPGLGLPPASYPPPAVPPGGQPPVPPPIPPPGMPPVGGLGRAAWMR
Description: as §2, §3, §4

[3] = read-out: CDK7 IC50, CDK7/Cyclin H/MAT1 6 nM, ATP 2 mM, 35 min at 27° C.
[4] = read-out: CDK9 IC50, CDK9/Cyclin T1 8 nM, ATP 2 mM, 15 min at 27° C.
[5] = read-out: CDK2 IC50, CDK2/Cyclin E1 0.5 nM, ATP 2 mM, 35 min at 27° C.
[6] = read-out: CDK12 IC50, CDK12 (aa686-1082)/Cyclin K 50 nM, ATP 2 mM, 3 hr at 27° C.

Row | Compound | IC50 (COV318 cells) [nM] | IC50 (COV504 cells) [nM] | IC50 [1, 3] [nM] | IC50 (HCC70 cells) [nM] | IC50 (MB453 cells) [nM] | IC50 (CDK9/Cyclin T1 complex; [4]) [nM] | IC50 (CDK2/Cyclin E1 complex; [5]) [nM] | IC50 [2, 6] [nM] | IC50 (COV318 cells; Homo sapiens) [nM] | IC50 (COV504 cells; Homo sapiens) [nM] | IC50 [1] [nM] | IC50 (HCC70 cells; Homo sapiens) [nM] | IC50 (MB453 cells; Homo sapiens) [nM] | IC50 (CDK9/Cyclin T1 complex) [nM] | IC50 (CDK2/Cyclin E1 complex) [nM] | IC50 [2] [nM]
1 | 3-methyl-4-(3-(2-(methylthio)-5-(trifluoromethyl)pyrimidin-4-yl)-1-(phenylsulfonyl)-1H-pyrrolo[2,3-b]pyridin-6-yl)isoxazole [Compound 147] | > 1000 | < 100 | < 30 | < 100 | < 100 | > 500 | > 500 | > 500 |  |  |  |  |  |  |  | 
2 | CO[C@@H]1CCNC[C@H]1Nc1ncc(C(F)(F)F)c(-c2c[nH]c3nc(-c4c(C)noc4C)ccc23)n1 (single isomer, unassigned) [Compound 117] |  |  |  |  |  |  |  |  | 500 to 1000 | < 100 | < 30 | 100 to 500 | < 100 | > 500 | > 500 | > 500
3 | CO[C@@H]1CCNC[C@H]1Nc1ncc(C(F)(F)F)c(-c2c[nH]c3cc(-c4c(C)noc4C)ccc23)n1 (single isomer, unassigned) [Compound 127] |  |  |  |  |  |  |  |  | 100 to 500 | < 100 | < 30 | > 1000 | < 100 | > 500 | > 500 | > 500
4 | Cc1noc(C)c1-c1ccc2c(-c3nc(N[C@@H]4CN(C(=O)OC(C)(C)C)CC[C@@H]4C)ncc3C(F)(F)F)cn(S(=O)(=O)c3ccccc3)c2n1 (single isomer, unassigned) [Compound 143] |  |  | < 30 |  |  | > 500 | > 500 | > 500 | > 1000 | < 100 |  | < 100 | < 100 |  |  | 
5 | Cc1noc(C)c1-c1ccc2c(-c3nc(N[C@H]4CCCNC4)ncc3C(F)(F)F)n[nH]c2c1 [Compound 100, 4-[6-(3,5-dimethylisoxazol-4-yl)-1H-indazol-3-yl]-N-[(3S)-3-piperidyl]-5-(trifluoromethyl)pyrimidin-2-amine] |  |  |  |  |  |  |  |  | 100 to 500 | < 100 | < 30 | < 100 | < 100 | > 500 | > 500 | > 500
6 | Cc1noc(C)c1-c1ccc2c(-c3nc(N[C@H]4CCCNC4)ncc3C(F)(F)F)c[nH]c2n1 [Compound 101, 4-[6-(3,5-dimethylisoxazol-4-yl)-1H-pyrrolo-[2,3-b]-pyridin-3-yl]-N-[(3S)-3-piperidyl]-5-(trifluoromethyl)pyrimidin-2-amine] |  |  |  |  |  |  |  |  | < 100 | < 100 | < 30 | < 100 | < 100 | > 500 | > 500 | 100 to 500
7 | Cc1noc(C)c1-c1ccc2c(-c3nc(N[C@@H]4CNCC(C)(C)C4)ncc3C(F)(F)F)c[nH]c2c1 [Compound 102] |  |  |  |  |  |  |  |  | 100 to 500 | < 100 | < 30 | < 100 | < 100 | > 500 | > 500 | > 500
8 | FC(F)(F)c1cnc(N[C@H]2CCCNC2)nc1-c1n[nH]c2cc(-c3nccs3)ccc12 [Compound 103] |  |  |  |  |  |  |  |  | 100 to 500 | < 100 | < 30 | 100 to 500 | < 100 | > 500 | > 500 | 100 to 500
9 | Cc1noc(C)c1-c1ccc2c(-c3nc(N[C@H]4CCC(C)(C)NC4)ncc3C(F)(F)F)c[nH]c2c1 [Compound 104, (S)-4-(6-(3,5-dimethylisoxazol-4-yl)-1H-indol-3-yl)-N-(6,6-dimethylpiperidin-3-yl)-5-(trifluoromethyl)pyrimidin-2-amine] |  |  |  |  |  |  |  |  | 100 to 500 | < 100 | < 30 | < 100 | < 100 | > 500 | > 500 | > 500
10 | Cc1noc(C)c1-c1ccc2c(-c3nc(N[C@@H]4CNC[C@H](O)C4)ncc3C(F)(F)F)c[nH]c2c1 [Compound 105, (3R,5S)-5-[[4-[6-(3,5-dimethylisoxazol-4-yl)-1H-indol-3-yl]-5-(trifluoromethyl)pyrimidin-2-yl]amino]piperidin-3-ol] |  |  |  |  |  |  |  |  | 500 to 1000 | 100 to 500 | < 30 | < 100 | 100 to 500 | > 500 | > 500 | > 500
11 | CC1(C)CC[C@H](Nc2ncc(C(F)(F)F)c(-c3c[nH]c4cc(-c5nccs5)ccc34)n2)CN1 [Compound 106, (S)—N-(6,6-dimethylpiperidin-3-yl)-4-(6-(thiazol-2-yl)-1H-indol-3-yl)-5-(trifluoromethyl)pyrimidin-2-amine] |  |  |  |  |  |  |  |  | 100 to 500 | < 100 | < 30 | < 100 | < 100 | > 500 | > 500 | > 500
12 | O[C@H]1CNC[C@@H](Nc2ncc(C(F)(F)F)c(-c3c[nH]c4cc(-c5nccs5)ccc34)n2)C1 [Compound 107] |  |  |  |  |  |  |  |  | 100 to 500 | 100 to 500 | < 30 | 100 to 500 | 100 to 500 | > 500 | > 500 | > 500
13 | FC(F)(F)c1cnc(N[C@H]2CCCNC2)nc1-c1c[nH]c2nc(-c3nccs3)ccc12 [Compound 108] |  |  |  |  |  |  |  |  | < 100 | < 100 | < 30 | < 100 | < 100 | > 500 | > 500 | > 500
14 | CC1(C)CNC[C@@H](Nc2ncc(C(F)(F)F)c(-c3c[nH]c4cc(-c5nccs5)ccc34)n2)C1 [Compound 109] |  |  |  |  |  |  |  |  | < 100 | < 100 | < 30 | 100 to 500 | 100 to 500 | > 500 | > 500 | > 500
15 | FC(F)(F)c1cnc(N[C@H]2CCCNC2)nc1-c1c[nH]c2cc(-c3ncco3)ccc12 [Compound 110, (S)-4-(6-(oxazol-2-yl)-1H-indol-3-yl)-N-(piperidin-3-yl)-5-(trifluoromethyl)pyrimidin-2-amine] |  |  |  |  |  |  |  |  | 100 to 500 | < 100 | < 30 | < 100 | < 100 | > 500 | > 500 | > 500
16 | FC(F)(F)c1cnc(N[C@H]2CCCNC2)nc1-c1c[nH]c2cc(-c3cnco3)ccc12 [Compound 111, (S)-4-(6-(oxazol-5-yl)-1H-indol-3-yl)-N-(piperidin-3-yl)-5-(trifluoromethyl)pyrimidin-2-amine] |  |  |  |  |  |  |  |  | 100 to 500 | < 100 | < 30 | 100 to 500 | 100 to 500 | > 500 | > 500 | > 500
17 | Cc1noc(C)c1-c1ccc2c(-c3nc(N[C@@H]4CNC[C@H](C(=O)N(C)C)C4)ncc3C(F)(F)F)c[nH]c2c1 [Compound 112, (3R,5S)-5-[[4-[6-(3,5-dimethylisoxazol-4-yl)-1H-indol-3-yl]-5-(trifluoromethyl)pyrimidin-2-yl]-amino]-N, N-dimethyl-piperidine-3-carboxamide] |  |  |  |  |  |  |  |  | > 1000 | 100 to 500 | < 30 | 100 to 500 | 100 to 500 | > 500 | > 500 | > 500
18 | CNC(=O)[C@H]1CNC[C@@H](Nc2ncc(C(F)(F)F)c(-c3c[nH]c4cc(-c5c(C)noc5C)ccc34)n2)C1 [Compound 113] |  |  |  |  |  |  |  |  | > 1000 | 500 to 1000 | < 30 | 500 to 1000 | 100 to 500 | > 500 | > 500 | > 500
19 | Cc1nocc1-c1ccc2c(-c3nc(N[C@H]4CCCNC4)ncc3C(F)(F)F)c[nH]c2c1 [Compound 114, (S)-4-(6-(3-methylisoxazol-4-yl)-1H-indol-3-yl)-N-(piperidin-3-yl)-5-(trifluoromethyl)pyrimidin-2-amine] |  |  |  |  |  |  |  |  | < 100 | < 100 | < 30 | < 100 | < 100 | > 500 | > 500 | > 500
20 | Cc1noc(C)c1-c1ccc2c(-c3nc(N[C@@H]4CNCC(C)(C)C4)ncc3C(F)(F)F)c[nH]c2n1 [Compound 115] |  |  |  |  |  |  |  |  | < 100 | < 100 | < 30 | < 100 | < 100 | > 500 | 100 to 500 | 100 to 500
